Reference: paper PMC10955468 (Frontiers in Pharmacology, 2024)

Experiments:
TMEM206 (PAORAC/ASOR) [1] = target: T1, TMEM206 (PAORAC/ASOR) (Homo sapiens, UniProt Q9H813); test: whole-cell patch clamp, HCT116; assay type: cell-based; conditions: HCT-116; read-out: % residual current at 100 μM
T1 construct: gene PACC1; native full-length channel in HCT116 cells (whole-cell patch clamp); homo-trimer; current absent in TMEM206 knockout clones

TMEM206 (PAORAC/ASOR) [2] = target: T1, TMEM206 (PAORAC/ASOR); test: whole-cell patch clamp, HCT116; assay type: cell-based; conditions: HCT-116, read-out: % inhibition at 100 μM

T1 sequence (Q9H813 whole entry): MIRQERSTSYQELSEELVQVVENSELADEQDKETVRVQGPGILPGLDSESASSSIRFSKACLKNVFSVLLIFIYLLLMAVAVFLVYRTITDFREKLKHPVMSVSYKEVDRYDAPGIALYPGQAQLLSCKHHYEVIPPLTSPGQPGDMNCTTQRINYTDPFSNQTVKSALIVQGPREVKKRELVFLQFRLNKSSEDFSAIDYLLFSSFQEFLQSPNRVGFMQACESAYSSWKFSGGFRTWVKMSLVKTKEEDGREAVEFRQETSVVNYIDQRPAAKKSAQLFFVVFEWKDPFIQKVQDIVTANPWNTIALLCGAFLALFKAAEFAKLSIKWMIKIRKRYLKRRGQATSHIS

| remaining activity at 100 µM (TMEM206 (PAORAC/ASOR) [1]) [%] | inhibition at 100 µM (TMEM206 (PAORAC/ASOR) [2]) [%] | Compound |
| --- | --- | --- |
| 53 | – | Cc1cc(Cl)ccc1OC(C)C(=O)Nc1cc(Cl)ccc1C(=O)O (stereo not drawn) [LBA, 4-chloro-2-(2-(4-chloro-2-methylphenoxy)propanamido)benzoic acid] |
| – | 28 | O=C(O)c1ccccc1Nc1cccc(C(F)(F)F)c1 [flufenamic acid] |
| 38 | – | O=C(O)c1cccnc1Nc1cccc(C(F)(F)F)c1 [niflumic acid] |
